The nature of data set [1]: Pharmacokinetic evaluation of prodrugs in rats following intramuscular injection. Type of data set: in vivo, Male Sprague-Dawley rats. The note with it: rat, IM injection. Here is the method: Male Sprague-Dawley rats (Charles River Laboratories, Wilmington, Mass.) were obtained. Approximately 24 rats were used in each study. Rats were approximately 350-375 g at time of arrival. Rats were housed 2 per cage with ad libitum chow and water. Environmental conditions in the housing room: 64-67 OF, 30% to 70% relative humidity, and 12:12-h light:dark cycle. All experiments were approved by the institutional animal care and use committee.
(§1) Rats were dosed IM by means of a 25 gauge, ⅝ inch needle with 1 cc syringe 0.3 mL suspension was withdrawn from the vial containing the test compound (see Table E). The […] was injected in the muscles of the hind limb after anesthesia with isoflourane. Blood samples were collected via a lateral tail vein after brief anesthesia with Isoflurane. A 27½-G needle and 1 cc syringe without an anticoagulant was used for the blood collection. Approximately 350 μL of whole blood was collected at each sampling time-point of 6 hours, 24 hours and 2, 5, 7, 9, 12, 14, 21, 28, 35 days after administration. Once collected, whole blood was immediately transferred to tubes containing K2 EDTA, inverted 10-15 times and immediately placed on ice. The tubes were centrifuged for 2 minutes at >14,000 g's (11500 RPMs using Eppendorf Centrifuge 5417C, F45-30-11 rotor) at room temperature to separate plasma. Plasma samples were transferred to labeled plain tubes (MICROTAINER®) and stored frozen at <−70° C.
(§2) Drug concentrations in plasma samples were analyzed by liquid chromatography-mass spectroscopy using appropriate parameters for each compound. Half-life, volume of distribution, clearance, maximal concentration, and AUC were calculated by using WinNonlin Version 5.2_software (Pharsight, St. Louis, Mo.).

The nature of data set [2]: Pharmacokinetic study for pioglitazone, Compounds 1002 and 1008. It counts as in vivo, rats. Conditions: rat, intramuscular; pioglitazone prodrug, crystalline material in 2% CMC, 0.2% Tween 20, PBS buffer pH 6.7; dose 67 mg/kg in table. Here is the method:
as §1, §2
PK profile of compounds 1002 and 1008 was compared to pioglitazone using a similar model as described above. 20 mg of pioglitazone or 20 mg equivilant of pioglitazone prodrug was administered intramuscularly.

For data set [3], the system named is D-Amphetamine-induced locomotion. Nature of the data set: Pharmacodynamic study in amphetamine-induced locomotion model. Conditions: D-AMPH 1.5 mg/kg IP.
The mark [4] stands for this setting: crystalline suspension or oil emulsion.
Setting [5] is: PO, at the higher dose of 20 mg.
[6] abbreviates: oral oil solution (PO), 0.66, 10 and 20 mg/rat.
The mark [7] stands for this setting: solution in ethyl oleate, dose (mg/kg).

These results are taken from patent publication US10723728B2, “Prodrugs of Nh-acidic compounds” (ALKERMES PHARMA IRELAND LIMITED, priority 2009, dated 2020).

The structures appear in SMILES notation.

As to `CC(C)C(=O)OCN1C(=O)CCc2ccc(OCCCCN3CCN(c4cccc(Cl)c4Cl)CC3)cc21` [Compound 32, (7-(4-(4-(2,3-dichlorophenyl)piperazin-1-yl)butoxy)-2-oxo-3,4-dihydroquinolin-1(2H)-yl)methyl isobutyrate], in data set [1] (setting [4]), the AUC0-14 was 1334.4 ng·days/mL and the AUC0-T turned out to be 1486 ng·days/mL.
Consider `CCCCCCCCCCCCCCCC(=O)OCN1C(=O)SC(Cc2ccc(OCCc3ccc(CC)cn3)cc2)C1=O` (stereo not shown) [Compound 1008, (5-(4-(2-(5-ethylpyridin-2-yl)ethoxy)benzyl)-2,4-dioxothiazolidin-3-yl)methyl palmitoate], for which, in data set [2], the AUC0-14 came to 5000 ng·days/mL and the AUC0-T is 6763 ng·days/mL.
On to `CC(C)CCOC(=O)OCN1C(=O)CCc2ccc(OCCCCN3CCN(c4cccc(Cl)c4Cl)CC3)cc21` [Compound 85, (7-(4-(4-(2,3-dichlorophenyl)piperazin-1-yl)butoxy)-2-oxo-3,4-dihydroquinolin-1(2H)-yl)methyl isopentyl carbonate], for which, in data set [1] (setting [4]), the AUC0-14 is 1233.9 ng·days/mL and the AUC0-T was determined as 1348 ng·days/mL.
The like results for `CC(=O)OCN1C(=O)CCc2ccc(OCCCCN3CCN(c4cccc(Cl)c4Cl)CC3)cc21` [Compound 1, (7-(4-(4-(2,3-dichlorophenyl)piperazin-1-yl)butoxy)-2-oxo-3,4-dihydroquinolin-1(2H)-yl)methyl acetate] were, in that order, 1673 ng·days/mL and 1938 ng·days/mL.
As to `CCCCCCCCCCCCCCCC(=O)OCN1C(=O)CCc2ccc(OCCCCN3CCN(c4cccc(Cl)c4Cl)CC3)cc21` [Compound 10, (7-(4-(4-(2,3-dichlorophenyl)piperazin-1-yl)butoxy)-2-oxo-3,4-dihydroquinolin-1(2H)-yl)methyl palmitate], in data set [1] (setting [4]), the AUC0-14 was 302 ng·days/mL and the AUC0-T was determined as 786.6 ng·days/mL.
Consider `CNC(=O)OCN1C(=O)CCc2ccc(OCCCCN3CCN(c4cccc(Cl)c4Cl)CC3)cc21` [Compound 47, (7-(4-(4-(2,3-dichlorophenyl)piperazin-1-yl)butoxy)-2-oxo-3,4-dihydroquinolin-1(2H)-yl)methyl methylcarbamate], for which the “inhibition of increase in total distance traveled caused by D-AMPH” value (“inhibition of increase” below) in data set [3] (setting [5]) was “did appear to significantly inhibit increases in distance traveled caused by D-AMPH”. In addition, in data set [1] (setting [4]), the AUC0-14 was found to be 113 ng·days/mL and the AUC0-T was found to be 176 ng·days/mL.
Turning to `CCCCCCCC(=O)OCN1C(=O)CCc2ccc(OCCCCN3CCN(c4cccc(Cl)c4Cl)CC3)cc21` [Compound 5, (7-(4-(4-(2,3-dichlorophenyl)piperazin-1-yl)butoxy)-2-oxo-3,4-dihydroquinolin-1(2H)-yl)methyl octanoate], in data set [1] (setting [4]), the AUC0-14 amounted to 1728.6 ng·days/mL and the AUC0-T was 1742 ng·days/mL.
In the case of `CCCCCC(=O)OCN1C(=O)CCc2ccc(OCCCCN3CCN(c4cccc(Cl)c4Cl)CC3)cc21` [Compound 4, (7-(4-(4-(2,3-dichlorophenyl)piperazin-1-yl)butoxy)-2-oxo-3,4-dihydroquinolin-1(2H)-yl)methyl hexanoate], in data set [3] (setting [6]), the “dose dependence of inhibition of distance travelled” value is recorded as “did not appear to be dose dependent” and the “inhibition of increase” value is reported as “significantly inhibited the increases in distance traveled caused by D-AMPH”. Also, in data set [1] (setting [4]), the AUC0-14 was 1455.4 ng·days/mL and the AUC0-T was 1678 ng·days/mL.
For `CC(C)OC(=O)OCN1C(=O)CCc2ccc(OCCCCN3CCN(c4cccc(Cl)c4Cl)CC3)cc21` [Compound 48, (7-(4-(4-(2,3-dichlorophenyl)piperazin-1-yl)butoxy)-2-oxo-3,4-dihydroquinolin-1(2H)-yl)methyl isopropyl carbonate], in data set [1] (setting [4]), the AUC0-14 turned out to be 2238 ng·days/mL and the AUC0-T came to 2264.6 ng·days/mL.
The like results for `O=C(OCN1C(=O)CCc2ccc(OCCCCN3CCN(c4cccc(Cl)c4Cl)CC3)cc21)C1CCC1` [Compound 34, (7-(4-(4-(2,3-dichlorophenyl)piperazin-1-yl)butoxy)-2-oxo-3,4-dihydroquinolin-1(2H)-yl)methyl cyclobutanecarboxylate] were, in that order, 2050 ng·days/mL and 2095.8 ng·days/mL.
For `CCCC(=O)OCN1C(=O)SC(Cc2ccc(OCCc3ccc(CC)cn3)cc2)C1=O` (stereo not shown) [Compound 1002, (5-(4-(2-(5-ethylpyridin-2-yl)ethoxy)benzyl)-2,4-dioxothiazolidin-3-yl)methyl butyrate], in data set [2], the AUC0-14 stood at 5350 ng·days/mL and the AUC0-T was 5972 ng·days/mL.
Consider `CCCCCCCCCCOC(=O)OCN1C(=O)CCc2ccc(OCCCCN3CCN(c4cccc(Cl)c4Cl)CC3)cc21` [Compound 82, decyl (7-(4-(4-(2,3-dichlorophenyl)piperazin-1-yl)butoxy)-2-oxo-3,4-dihydroquinolin-1(2H)-yl)methyl carbonate], for which the AUC0-14 in data set [1] (setting [7]) was 204 ng·days/mL.
`O=C(OCN1C(=O)CCc2ccc(OCCCCN3CCN(c4cccc(Cl)c4Cl)CC3)cc21)N1CCOCC1` [Compound 49, (7-(4-(4-(2,3-dichlorophenyl)piperazin-1-yl)butoxy)-2-oxo-3,4-dihydroquinolin-1(2H)-yl)methyl morpholine-4-carboxylate]: in data set [1] (setting [4]), the AUC0-14 was determined as 152 ng·days/mL and the AUC0-T was determined as 199.7 ng·days/mL.
As for `CCCCCCOC(=O)OCN1C(=O)CCc2ccc(OCCCCN3CCN(c4cccc(Cl)c4Cl)CC3)cc21` [Compound 81, (7-(4-(4-(2,3-dichlorophenyl)piperazin-1-yl)butoxy)-2-oxo-3,4-dihydroquinolin-1(2H)-yl)methyl hexyl carbonate], the AUC0-14 in data set [1] (setting [7]) was 584 ng·days/mL.
Take `CCCCCCCCCCCC(=O)OCN1C(=O)CCc2ccc(OCCCCN3CCN(c4cccc(Cl)c4Cl)CC3)cc21` [Compound 7, (7-(4-(4-(2,3-dichlorophenyl)piperazin-1-yl)butoxy)-2-oxo-3,4-dihydroquinolin-1(2H)-yl)methyl dodecanoate]: the “inhibition of increase” value in data set [3] (setting [5]) is reported as “did appear to significantly inhibit increases in distance traveled caused by D-AMPH”. In data set [1] (setting [4]), the AUC0-14 was determined as 512.0 ng·days/mL and the AUC0-T turned out to be 1169.5 ng·days/mL.
In the case of `O=C(OCN1C(=O)CCc2ccc(OCCCCN3CCN(c4cccc(Cl)c4Cl)CC3)cc21)c1ccccc1` [Compound 31, (7-(4-(4-(2,3-dichlorophenyl)piperazin-1-yl)butoxy)-2-oxo-3,4-dihydroquinolin-1(2H)-yl)methyl benzoate], in data set [1] (setting [4]), the AUC0-14 was found to be 819.0 ng·days/mL and the AUC0-T turned out to be 997 ng·days/mL.
For `CCCC(=O)OCN1C(=O)CCc2ccc(OCCCCN3CCN(c4cccc(Cl)c4Cl)CC3)cc21` [Compound 2, (7-(4-(4-(2,3-dichlorophenyl)piperazin-1-yl)butoxy)-2-oxo-3,4-dihydroquinolin-1(2H)-yl)methyl butyrate] the same measures were 1016.9 ng·days/mL and 1139.8 ng·days/mL.
`CCOC(=O)OCN1C(=O)CCc2ccc(OCCCCN3CCN(c4cccc(Cl)c4Cl)CC3)cc21` [Compound 79, (7-(4-(4-(2,3-dichlorophenyl)piperazin-1-yl)butoxy)-2-oxo-3,4-dihydroquinolin-1(2H)-yl)methyl ethyl carbonate]: the AUC0-14 in data set [1] (setting [4]) was 907.4 ng·days/mL; in data set [1] (setting [7]), 954 ng·days/mL. For the same molecule, the AUC0-T in data set [1] (setting [4]) was 940 ng·days/mL.
In the case of `CCCCCCCCCC(=O)OCN1C(=O)CCc2ccc(OCCCCN3CCN(c4cccc(Cl)c4Cl)CC3)cc21` [Compound 6, (7-(4-(4-(2,3-dichlorophenyl)piperazin-1-yl)butoxy)-2-oxo-3,4-dihydroquinolin-1(2H)-yl)methyl decanoate], in data set [1] (setting [4]), the AUC0-14 stood at 1490.3 ng·days/mL and the AUC0-T stood at 1678.1 ng·days/mL. In addition, in data set [1] (setting [7]), the AUC0-14 was found to be 67 ng·days/mL and the AUC0-T worked out at 327 ng·days/mL.
